According to ChEMBL document CHEMBL6096732 (J Med Chem, 2025):
Active and inactive are the calls of the source. The calls are words filed in the database; no cut-off is given here.

Assays:
[1] = molecular target: T1, Protein deacetylase HDAC6 (Homo sapiens) (UniProt Q9UBN7); conditions: dose 500.0 nM, time 3.0 hrs
T1 sequence (whole entry): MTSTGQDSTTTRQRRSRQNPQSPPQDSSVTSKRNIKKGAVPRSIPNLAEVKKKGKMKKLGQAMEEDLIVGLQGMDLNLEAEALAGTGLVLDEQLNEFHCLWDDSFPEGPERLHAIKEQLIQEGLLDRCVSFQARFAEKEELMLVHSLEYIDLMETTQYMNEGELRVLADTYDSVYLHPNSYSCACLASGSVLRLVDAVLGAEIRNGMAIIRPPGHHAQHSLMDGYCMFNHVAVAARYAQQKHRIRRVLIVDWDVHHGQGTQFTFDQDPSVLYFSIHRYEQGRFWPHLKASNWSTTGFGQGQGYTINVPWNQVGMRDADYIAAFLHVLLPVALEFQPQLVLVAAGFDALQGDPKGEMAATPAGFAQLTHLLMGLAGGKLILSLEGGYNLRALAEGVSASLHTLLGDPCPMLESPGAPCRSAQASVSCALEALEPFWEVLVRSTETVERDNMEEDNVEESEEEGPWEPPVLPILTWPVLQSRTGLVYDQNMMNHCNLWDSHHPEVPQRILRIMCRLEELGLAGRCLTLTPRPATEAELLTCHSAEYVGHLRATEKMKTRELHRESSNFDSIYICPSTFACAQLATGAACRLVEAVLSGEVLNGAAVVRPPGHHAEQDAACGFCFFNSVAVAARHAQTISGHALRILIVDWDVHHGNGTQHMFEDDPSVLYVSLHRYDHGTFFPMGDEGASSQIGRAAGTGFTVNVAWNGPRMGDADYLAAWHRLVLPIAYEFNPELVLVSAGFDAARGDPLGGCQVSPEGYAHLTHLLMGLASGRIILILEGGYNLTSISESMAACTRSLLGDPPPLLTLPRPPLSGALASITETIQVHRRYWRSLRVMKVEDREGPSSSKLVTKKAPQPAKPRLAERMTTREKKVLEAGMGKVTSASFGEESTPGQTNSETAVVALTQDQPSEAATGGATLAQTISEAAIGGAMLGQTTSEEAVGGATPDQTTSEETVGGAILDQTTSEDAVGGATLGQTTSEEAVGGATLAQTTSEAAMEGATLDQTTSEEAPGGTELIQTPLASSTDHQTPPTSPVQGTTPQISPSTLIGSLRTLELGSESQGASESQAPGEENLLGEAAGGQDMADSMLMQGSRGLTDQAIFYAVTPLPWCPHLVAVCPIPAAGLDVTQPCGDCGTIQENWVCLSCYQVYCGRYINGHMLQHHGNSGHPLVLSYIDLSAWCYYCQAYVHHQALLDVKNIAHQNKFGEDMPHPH

[2] = molecular target: Programmed cell death 1 ligand 1 (Mus musculus) (UniProt Q9EP73); test: Induction of PD-L1 degradation in mouse B16-F10 cells assessed as decrease in PD-L1 protein level at 5 uM preincubated with MG132 for 4 hrs followed by compound addition and measured after 24 hrs by Western blot analysis; assay type: cell-based
Sequence of Programmed cell death 1 ligand 1 (Mus musculus) (Q9EP73 whole entry): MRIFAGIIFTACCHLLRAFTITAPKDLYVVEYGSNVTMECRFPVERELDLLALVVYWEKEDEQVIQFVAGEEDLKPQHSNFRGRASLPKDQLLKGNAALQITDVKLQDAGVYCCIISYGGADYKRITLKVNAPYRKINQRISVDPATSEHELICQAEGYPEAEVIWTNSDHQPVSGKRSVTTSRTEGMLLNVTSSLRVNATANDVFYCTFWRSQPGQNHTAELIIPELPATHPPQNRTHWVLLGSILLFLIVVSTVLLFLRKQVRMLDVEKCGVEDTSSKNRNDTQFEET

[3] = AUC (0 to infinity) in male Sprague-Dawley rat at 20 mg/kg, po measured after 12 hrs by LC-MS/MS analysis; assay type: ADME, organism-based; conditions: in vivo
[4] = test system: 4T1; test: Effect on acetylated H3K56 expression level in mouse 4T1 cells at 5 to 20 uM incubated for 24 hrs by Western blot analysis; assay type: functional, cell-based; conditions: dose 5-20 µM
[5] = test system: B16-F10; test: Induction of apoptosis in mouse B16-F10 cells assessed as increase in apoptotic cells at 5 uM incubated for 48 hrs by Annexin V-FITC/PI staining based flow cytometric analysis relative to control; assay type: functional
[6] = test system: 4T1; test: Antitumor activity against mouse 4T1 cells implanted in female BALB/c mouse model assessed as induction of DNA damage by measuring increase in gamma-H2AX expression in tumor co-administrated orally with olaparib as once daily dose via gavage for 14 days by immunohistochemistry analysis; assay type: functional, cell-based; conditions: route po, time 14.0 day
[7] = test system: B16-F10; test: Downregulation of PARP1 expression in mouse B16-F10 cells at 2 uM incubated for 24 hrs in presence of olaparib by Western blot analysis; assay type: functional, cell-based
[8] = molecular target: Histone deacetylase 7 (Homo sapiens, UniProt Q8WUI4); test: Inhibition of recombinant HDAC7 (unknown origin) using Boc-Lys(trifluoroacetyl)-AMC as substrate preincubated for 1 hr followed by substrate addition and measured after 2 hrs by fluorescence based micro plate reader analysis
Sequence of Histone deacetylase 7 (Q8WUI4 whole entry): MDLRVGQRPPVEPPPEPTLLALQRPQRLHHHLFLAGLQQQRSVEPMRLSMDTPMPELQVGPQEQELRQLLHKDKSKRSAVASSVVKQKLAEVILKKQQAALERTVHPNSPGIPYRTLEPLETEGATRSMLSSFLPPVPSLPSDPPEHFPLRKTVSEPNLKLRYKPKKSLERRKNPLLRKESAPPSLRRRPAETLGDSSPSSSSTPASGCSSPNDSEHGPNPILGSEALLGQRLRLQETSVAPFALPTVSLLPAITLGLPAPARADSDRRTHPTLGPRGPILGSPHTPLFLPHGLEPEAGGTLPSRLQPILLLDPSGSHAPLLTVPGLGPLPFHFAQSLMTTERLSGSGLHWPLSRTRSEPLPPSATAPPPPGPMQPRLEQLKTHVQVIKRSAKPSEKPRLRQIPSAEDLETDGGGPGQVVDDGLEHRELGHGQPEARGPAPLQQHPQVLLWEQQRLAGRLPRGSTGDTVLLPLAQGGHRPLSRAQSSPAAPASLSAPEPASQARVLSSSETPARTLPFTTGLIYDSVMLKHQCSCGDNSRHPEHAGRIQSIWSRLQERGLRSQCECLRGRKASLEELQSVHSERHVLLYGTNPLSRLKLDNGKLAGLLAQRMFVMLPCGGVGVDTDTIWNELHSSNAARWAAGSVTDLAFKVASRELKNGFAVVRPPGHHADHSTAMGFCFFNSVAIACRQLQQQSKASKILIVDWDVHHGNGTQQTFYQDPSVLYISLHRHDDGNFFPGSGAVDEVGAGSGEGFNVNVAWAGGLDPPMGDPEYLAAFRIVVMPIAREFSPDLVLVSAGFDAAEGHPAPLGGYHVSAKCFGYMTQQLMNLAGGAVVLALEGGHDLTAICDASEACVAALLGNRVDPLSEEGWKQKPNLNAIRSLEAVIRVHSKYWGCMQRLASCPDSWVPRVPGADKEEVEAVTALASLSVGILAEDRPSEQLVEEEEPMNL

[9] = molecular target: T2, Histone deacetylase 3 (Mus musculus) (UniProt O88895); test: In vivo inhibition of HDAC3 in male C57BL/6 mouse model implanted with mouse B16-F10 cells assessed as increase in acetylated histone H3 level in tumor at 50 mg/kg, po co-administered with NP-19 as once daily dosage via gavage for 14 days by DAPI staining based immunofluorescence analysis; assay type: functional, organism-based; conditions: time 14.0 day
T2 sequence (whole entry): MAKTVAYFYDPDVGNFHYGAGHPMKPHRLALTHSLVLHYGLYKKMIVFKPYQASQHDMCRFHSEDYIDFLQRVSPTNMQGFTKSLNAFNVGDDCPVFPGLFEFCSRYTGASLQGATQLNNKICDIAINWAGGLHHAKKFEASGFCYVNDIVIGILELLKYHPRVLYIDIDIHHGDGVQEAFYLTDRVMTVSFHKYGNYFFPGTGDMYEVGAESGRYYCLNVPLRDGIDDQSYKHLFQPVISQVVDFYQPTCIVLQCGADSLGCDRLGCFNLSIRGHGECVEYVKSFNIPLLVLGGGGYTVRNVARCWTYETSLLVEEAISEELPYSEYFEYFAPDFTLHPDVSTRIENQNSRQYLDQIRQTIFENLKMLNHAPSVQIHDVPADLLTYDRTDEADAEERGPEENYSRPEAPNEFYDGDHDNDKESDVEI

[10] = molecular target: T2, Histone deacetylase 3 (Mus musculus); test: In vivo inhibition of HDAC3 in male C57BL/6 mouse model implanted with mouse B16-F10 cells assessed as increase in acetylated histone H3 level in tumor at 50 mg/kg, po administered once daily via gavage for 14 days by DAPI staining based immunofluorescence analysis; assay type: functional, organism-based; conditions: time 14.0 day
[11] = VRT (0 to t) in male Sprague-Dawley rat at 20 mg/kg, po measured after 12 hrs by LC-MS/MS analysis; assay type: ADME, organism-based; conditions: in vivo
[12] = Clearance in male Sprague-Dawley rat at 20 mg/kg, po measured after 12 hrs by LC-MS/MS analysis; assay type: ADME, organism-based; conditions: in vivo
[13] = molecular target: Programmed cell death 1 ligand 1 (Mus musculus) (UniProt Q9EP73); test: Induction of PD-L1 degradation in mouse B16-F10 cells assessed as decrease in PD-L1 protein level at 5 uM preincubated with bafilomycin A1 for 4 hrs followed by compound addition and measured after 24 hrs by Western blot analysis; assay type: cell-based
[14] = molecular target: T2, Histone deacetylase 3 (Mus musculus); test: Inhibition of HDAC3 in mouse B16-F10 cells assessed as increase in histone H3 acetylation level at 5 to 20 uM incubated for 24 hrs by Western blot analysis; assay type: cell-based; conditions: dose 5-20 µM
[15] = Cmax in male Sprague-Dawley rat at 2 mg/kg, iv measured after 12 hrs by LC-MS/MS analysis; assay type: ADME, organism-based; conditions: in vivo
[16] = Toxicity in male C57BL/6 mouse implanted with mouse B16-F10 cells assessed as histopathological changes in liver at 50 mg/kg, po administered once daily for 14 days by HandE staining based microscopic analysis; assay type: organism-based; conditions: in vivo, 336 h, time 14 day

inhibition [1]: 17%
AUC(0-inf) [3]: 8170 ng·h/mL
IC50 [8]: > 10 µM
inhibition [9]: Active
inhibition [10]: Active
VRT(t) [11]: 7.932 hr2
CL/F [12]: 41.1 mL/min/kg
inhibition [14]: Active
Cmax [15]: 1040 ng/mL
Compound: CCCNNC(=O)c1ccc(Cn2c3ccccc3c3c(-c4ccccn4)nc4ccccc4c32)cc1
Activity [2]: Active
Activity [4]: inactive
Activity [5]: 25%
Activity [6]: Active
Activity [7]: Active
Activity [13]: Not active; Compound Degrades Pd-L1 Through Lysosomal Pathway
Activity [16]: Non-toxic
